In the CheMixHub viscosity set:
Values joined by “and” are separate entries in the source; they are usually repeats but may differ in a detail not shown here. Identical values can stand only once. ± gives the uncertainty stated by the source.

Assay: xn = mol fraction of the nth substance listed

CN(C)CCO + O
viscosity
Settings	293.15 K	298.15 K	303.15 K	308.15 K	313.15 K	318.15 K	323.15 K
101 kPa, x1 = 0.03444	–	–	1.45 ± 0.06 mPa·s	–	1.14 ± 0.05 mPa·s	–	0.91 ± 0.04 mPa·s
101 kPa, x1 = 0.05	–	–	1.921 ± 0.018 mPa·s	1.657 ± 0.015 mPa·s	–	1.271 ± 0.013 mPa·s	–
101 kPa, x1 = 0.07971	–	–	2.95 ± 0.12 mPa·s and 2.92 ± 0.06 mPa·s	–	2.01 ± 0.04 mPa·s	–	1.56 ± 0.06 mPa·s and 1.51 ± 0.03 mPa·s
101 kPa, x1 = 0.08	4.245 ± 0.025 mPa·s	3.487 ± 0.023 mPa·s	2.898 ± 0.021 mPa·s	2.44 ± 0.02 mPa·s	–	1.791 ± 0.019 mPa·s	1.557 ± 0.018 mPa·s
101 kPa, x1 = 0.1003	–	–	3.662 ± 0.027 mPa·s	3.042 ± 0.023 mPa·s	2.555 ± 0.02 mPa·s	2.183 ± 0.018 mPa·s	–
101 kPa, x1 = 0.1187	–	–	4.64 ± 0.1 mPa·s	–	3.19 ± 0.07 mPa·s	–	2.31 ± 0.05 mPa·s
101 kPa, x1 = 0.1419	–	–	5.19 ± 0.21 mPa·s	–	–	–	2.51 ± 0.1 mPa·s
101 kPa, x1 = 0.1993	–	–	7.496 ± 0.047 mPa·s	6.012 ± 0.044 mPa·s	4.87 ± 0.035 mPa·s	4.018 ± 0.029 mPa·s	–
101 kPa, x1 = 0.2947	–	–	9.838 ± 0.062 mPa·s	7.806 ± 0.056 mPa·s	6.256 ± 0.045 mPa·s	5.104 ± 0.037 mPa·s	–
101 kPa, x1 = 0.3489	–	–	10.24 ± 0.066 mPa·s	8.126 ± 0.058 mPa·s	6.525 ± 0.046 mPa·s	5.309 ± 0.038 mPa·s	–
101 kPa, x1 = 0.4004	–	–	10.1 ± 0.066 mPa·s	8.019 ± 0.057 mPa·s	6.443 ± 0.046 mPa·s	5.268 ± 0.038 mPa·s	–
101 kPa, x1 = 0.453	–	–	9.546 ± 0.063 mPa·s	7.626 ± 0.054 mPa·s	6.189 ± 0.044 mPa·s	5.067 ± 0.036 mPa·s	–
101 kPa, x1 = 0.504	–	–	8.735 ± 0.058 mPa·s	7.048 ± 0.05 mPa·s	5.741 ± 0.041 mPa·s	4.741 ± 0.034 mPa·s	–
101 kPa, x1 = 0.6047	–	–	7.076 ± 0.048 mPa·s	5.815 ± 0.041 mPa·s	4.809 ± 0.034 mPa·s	4.041 ± 0.029 mPa·s	–
101 kPa, x1 = 0.7044	–	–	5.567 ± 0.038 mPa·s	4.675 ± 0.033 mPa·s	3.934 ± 0.028 mPa·s	3.341 ± 0.024 mPa·s	–
101 kPa, x1 = 0.8062	–	–	4.37 ± 0.03 mPa·s	3.722 ± 0.026 mPa·s	3.184 ± 0.023 mPa·s	2.756 ± 0.02 mPa·s	–
101 kPa, x1 = 0.9046	–	–	3.485 ± 0.025 mPa·s	3.015 ± 0.022 mPa·s	2.615 ± 0.019 mPa·s	2.293 ± 0.018 mPa·s	–
101.3 kPa, x1 = 0.1001	6.55 ± 0.06 mPa·s	–	4 ± 0.04 mPa·s	–	2.56 ± 0.03 mPa·s	–	–
101.3 kPa, x1 = 0.1999	10.56 ± 0.09 mPa·s	–	6.7 ± 0.06 mPa·s	–	4.2 ± 0.04 mPa·s	–	3.19 ± 0.03 mPa·s
101.3 kPa, x1 = 0.3	13.17 ± 0.11 mPa·s	–	8.53 ± 0.07 mPa·s	–	5.23 ± 0.05 mPa·s	–	3.69 ± 0.03 mPa·s
101.3 kPa, x1 = 0.4	14.4 ± 0.12 mPa·s	–	9.37 ± 0.08 mPa·s	–	5.7 ± 0.05 mPa·s	–	3.86 ± 0.04 mPa·s
101.3 kPa, x1 = 0.5	14.13 ± 0.12 mPa·s	–	9.3 ± 0.08 mPa·s	–	5.61 ± 0.05 mPa·s	–	3.65 ± 0.04 mPa·s
101.3 kPa, x1 = 0.6001	12.81 ± 0.11 mPa·s	–	8.61 ± 0.08 mPa·s	–	5.08 ± 0.05 mPa·s	–	3.16 ± 0.03 mPa·s
101.3 kPa, x1 = 0.6998	10.51 ± 0.09 mPa·s	–	7.1 ± 0.06 mPa·s	–	4.26 ± 0.04 mPa·s	–	2.64 ± 0.03 mPa·s
101.3 kPa, x1 = 0.8	7.76 ± 0.07 mPa·s	–	5.27 ± 0.05 mPa·s	–	–	–	2.12 ± 0.03 mPa·s
101.3 kPa, x1 = 0.9001	5.2 ± 0.05 mPa·s	–	3.53 ± 0.04 mPa·s	–	2.4 ± 0.03 mPa·s	–	1.84 ± 0.03 mPa·s
